Test results taken from patent US20260325617A1, “INKT Cell Modulator Liposomal Compositions and Methods of Use” (priority 2023, published 2026).
Values joined by “and” are separate entries in the source; they are usually repeats but may differ in a detail not shown here. Equal entries are not always repeated. Where two headings read alike, the source gives them in different places.

What was measured:
[1] = tested on: iNKT cells / immune cells; experiment: PD-1 / PD-L1 upregulation on immune cells by soluble IMM60
[2] = Mouse pharmacokinetics of IMM60 after i.v. liposomal or soluble IMM60 (Example 7); format: in vivo, mouse (C57BL/6 and CD1)
Protocol: The two strains of mice that were compared were CD1 mice (not to be confused with CD1d-KO mice) and C57BL/mice. The half-life, volume of distribution, clearance, AUC, and Cmax were calculated using the one-compartmental model with first-order kinetics.
Lipid formulation: DSPG:DSPC:IMM60 (3.44:4.37:1 mg/ml) in a 250 mM sucrose, 145 mM NaCl, 10 mM sodium phosphate, pH 6.5 buffer. Before use, Vials of liposomal IMM60 were thawed at room temperature (21° C.-22° C.), then heated to 55° C. for 10 minutes using a heated water bath. Vials were mixed by inversion six times, cooled to room temperature, and diluted to either 100 ng/ml or 10,000 ng/ml using injection grade saline (0.9% NaCl).
Soluble IMM60: Lyophilized material was resuspended in Chloroform:methanol:water (10:10:3) to 10 mg/ml (vials of 100 μg in 10 μl) swirled around to capture all the material and then Vehicle solution (150 mM NaCl, 0.5% Tween20 in distilled water) added quickly to a final concentration of 100 μg/ml (for 100 μg in 10 μl, added 990 μl of Vehicle), then then heated to 80-90° C. for 5 minutes, and sonicated with a waterbath sonicator for 5 minutes. Samples were diluted to 10,000 ng/ml using injection grade saline.
Mice were warmed up for 20-30 minutes in cages place in a 37° C. heating chamber. Mice within each group were injected intravenously, using 27G insulin syringe needles, with 100 μl (C57BL/mice) or 150 μl (CD-1 mice) of the recorded dose over approximately 4 seconds.
Plasma samples were analyzed by LC/MS/MS at Frontage Laboratories. […] The method uses alpha GalCer (analog to IMM60) as an internal standard and the mass spectroctoscopic ionization is electrospray in the positive ionization mode. The range of calibration standards is between 1 ng/mL to 1000 ng/mL IMM60 in mouse plasma.
Plasma concentrations were measured 10 and 180 minutes after IV administration. The half-life, clearance, and AUC(0-∞) were calculated using the one-compartmental model with first-order kinetics since only two time points were samples along the PK profile. Using these assumptions allow for the calculation of PK parameters. Other assumption is that the T10 minutes is substituted for T0 and C10 minutes is substituted for C0 and Cmax to solve for PK parameters of liposomal IMM60.
Statistical Calculations: the mean, standard deviation (SD), standard error of the mean (SE), p-value from the t-test (equal or unequal variances) was calculated using Microsoft Excel 201 (Microsoft Corporation). Equal or unequal variances were chosen based on use of the F-test function. All t-test comparisons were performed with the 1000 ng IMM60 in liposome form as the control. Half-life T(1/2) in Mouse of IMM60: The half-life for mice of IMM60 is calculated using Equation 1 using the one-compartment model with 1st order kinetics.

[3] = individual mouse, C57BL/6, 1000 ng i.v., listed as IMM60 soluble
[4] = individual mouse, CD1, 1500 ng i.v., listed as IMM60 soluble

For CCCCCCCCCCCCCCCCCCCCCCCCCC(=O)N[C@@H](CO[C@H]1CC[C@H](O)[C@H](O)[C@H]1O)[C@H](O)[C@H](O)CCCCCCCCCCCCCC [soluble IMM60], the “PD-1 on iNKT cells” value [1] was “upregulate the levels of PD-1 on iNKT cells”, the “PD-L1 on a variety of immune cells” value [1] was “upregulates expression of PD-L1” and the Cmax ([2]; individual mouse, C57BL/6, 1000 ng i.v., 10 min, listed as IMM60 soluble) was 87.7 ng/mL. The “AUC(0-∞)” value [2, 3] was 12,418 ng/ml/min, the Vd [2, 3] was 0.0114 L and the half-life [2, 3] was 1.636 h. The Cmax ([2]; individual mouse, CD1, 1500 ng i.v., 10 min, listed as IMM60 soluble) was 105.0 ng/mL, the “AUC(0-∞)” value [2, 4] was 17,976 ng/ml/min and the Vd [2, 4] was 0.01429 L. For the same compound, the half-life [2, 4] was 1.9773 h, the “Half-life and volume of distribution vs liposomal” value ([2]; mice) was “longer half-life and larger volume of distribution” and the AUC(0-inf) ([2]; mouse, plasma, iv, 0.001 mg, average, C57BL/6, 1000 ng i.v.) was 204 ng·h/mL. For the same compound, the Cmax at 10 min ([2]; mouse, plasma, iv, 0.001 mg, average, C57BL/6, 1000 ng i.v., 10 min) was 89.7 ng/mL, the clearance ([2]; mouse, plasma, iv, 0.001 mg, average, C57BL/6, 1000 ng i.v., read-out: Clearance) was 0.08 mL/min and the half-life ([2]; mouse, plasma, iv, 0.001 mg, average, C57BL/6, 1000 ng i.v., read-out: Half-life) was 1.58 h. For the same compound, the Vd ([2]; mouse, plasma, iv, 0.001 mg, average, C57BL/6, 1000 ng i.v., read-out: Vd) was 0.0112 L, the AUC(0-inf) ([2]; mouse, plasma, iv, 0.001 mg, individual mouse, C57BL/6, 1000 ng i.v.) was 201 ng·h/mL and the Cmax at 10 min ([2]; mouse, plasma, iv, 0.001 mg, individual mouse, C57BL/6, 1000 ng i.v., 10 min) was 91.7 ng/mL. It also gave a clearance ([2]; mouse, plasma, iv, 0.001 mg, individual mouse, C57BL/6, 1000 ng i.v., read-out: Clearance) of 0.08 mL/min, a half-life ([2]; mouse, plasma, iv, 0.001 mg, individual mouse, C57BL/6, 1000 ng i.v., read-out: Half-life) of 1.52 h and a Vd ([2]; mouse, plasma, iv, 0.001 mg, individual mouse, C57BL/6, 1000 ng i.v., read-out: Vd) of 0.0109 L. The AUC(0-inf) ([2]; mouse, plasma, iv, 0.0015 mg, average, CD1, 1500 ng i.v.) was 269 ng·h/mL, the Cmax at 10 min ([2]; mouse, plasma, iv, 0.0015 mg, average, CD1, 1500 ng i.v., 10 min) was 83.7 ng/mL and the clearance ([2]; mouse, plasma, iv, 0.0015 mg, average, CD1, 1500 ng i.v., read-out: Clearance) was 0.09 mL/min. It also gave a half-life ([2]; mouse, plasma, iv, 0.0015 mg, average, CD1, 1500 ng i.v., read-out: Half-life) of 2.32 h, a Vd ([2]; mouse, plasma, iv, 0.0015 mg, average, CD1, 1500 ng i.v., read-out: Vd) of 0.0192 L and an AUC(0-inf) ([2]; mouse, plasma, iv, 0.0015 mg, individual mouse, CD1, 1500 ng i.v.) of 239 ng·h/mL. It also gave a Cmax at 10 min ([2]; mouse, plasma, iv, 0.0015 mg, individual mouse, CD1, 1500 ng i.v., 10 min) of 62.4 ng/mL, a clearance ([2]; mouse, plasma, iv, 0.0015 mg, individual mouse, CD1, 1500 ng i.v., read-out: Clearance) of 0.1 mL/min and a half-life ([2]; mouse, plasma, iv, 0.0015 mg, individual mouse, CD1, 1500 ng i.v., read-out: Half-life) of 2.66 h. The Vd ([2]; mouse, plasma, iv, 0.0015 mg, individual mouse, CD1, 1500 ng i.v., read-out: Vd) was 0.024 L, the AUC(0-inf) ([2]; mouse, plasma, iv, 0.05 mg/kg, C57BL and CD1 strains, high dose) was 204 to 269 ng·h/mL and the clearance ([2]; mouse, plasma, iv, 0.05 mg/kg, C57BL and CD1 strains, high dose, read-out: Clearance) was 3.1 to 4.1 mL/min/kg. The Cmax ([2]; mouse, plasma, iv, 0.05 mg/kg, C57BL and CD1 strains, high dose, read-out: Cmax) was 84 to 90 ng/mL, the half-life ([2]; mouse, plasma, iv, 0.05 mg/kg, C57BL and CD1 strains, high dose, read-out: Half life T1/2) was 1.58 to 2.32 h and the Vd ([2]; mouse, plasma, iv, 0.05 mg/kg, C57BL and CD1 strains, high dose, read-out: Volume of distribution Vd) was 0.558 to 0.639 L/kg. For the same compound, the AUC(0-inf) ([2]; mouse, plasma, iv, 0.05 mg/kg, mean ± SE, 1000 ng (50 μg/kg) i.v.) was 204 ng·h/mL, the clearance ([2]; mouse, plasma, iv, 0.05 mg/kg, mean ± SE, 1000 ng (50 μg/kg) i.v., read-out: Cl) was 0.08 mL/min and 4.09 mL/min/kg and the Cmax ([2]; mouse, plasma, iv, 0.05 mg/kg, mean ± SE, 1000 ng (50 μg/kg) i.v., read-out: Cmax) was 90 ± 2 ng/mL. For the same compound, the Vd ([2]; mouse, plasma, iv, 0.05 mg/kg, mean ± SE, 1000 ng (50 μg/kg) i.v., read-out: Vd) was 0.558 ± 0.012 L/kg, the half-life ([2]; mouse, plasma, iv, 0.05 mg/kg, mean ± SE, 1000 ng (50 μg/kg) i.v., read-out: t1/2) was 1.57 ± 0.06 h and the AUC(0-inf) ([2]; mouse, plasma, iv, 0.05 mg/kg, mean ± SE, 1500 ng (50 μg/kg) i.v.) was 269 ng·h/mL. For the same compound, the clearance ([2]; mouse, plasma, iv, 0.05 mg/kg, mean ± SE, 1500 ng (50 μg/kg) i.v., read-out: Cl) was 0.09 mL/min and 3.13 mL/min/kg, the Cmax ([2]; mouse, plasma, iv, 0.05 mg/kg, mean ± SE, 1500 ng (50 μg/kg) i.v., read-out: Cmax) was 84 ± 21 ng/mL and the Vd ([2]; mouse, plasma, iv, 0.05 mg/kg, mean ± SE, 1500 ng (50 μg/kg) i.v., read-out: Vd) was 0.639 ± 0.163 L/kg. It also gave a half-life ([2]; mouse, plasma, iv, 0.05 mg/kg, mean ± SE, 1500 ng (50 μg/kg) i.v., read-out: t1/2) of 2.32 ± 0.34 h.
